Literature values in patent publication US20250114373A1, “[…] INSERT COMPRISING AN ANTIMICROBIAL AGENT” (OCULAR THERAPEUTIX, INC., priority 2022, published 2025).

Experiments:
Conditions in all cases: values from Proksch, 2009
S. epidermidis = test system: S. epidermidis
S. aureus = test system: S. aureus
H. influenzae = test system: H. influenzae
S. pneumoniae = test system: S. pneumoniae

For `N[C@@H]1CCCCN(c2c(F)cc3c(=O)c(C(=O)O)cn(C4CC4)c3c2Cl)C1` [Besifloxacin, (R)-7-(3-aminohexahydro-1H-azepin-1-yl)-8-chloro-1-cyclopropyl-6-fluoro-1,4-dihydro-4-oxo-3-quinolinecarboxylic acid], which MIC90 (S. epidermidis) is on record?
Its MIC90 is “(MIC90 of 0.5 μg/mL”.

What about the MIC90 (S. aureus) of the same compound?
Its MIC90 is “(MIC90 of 0.25 μg/mL”.

What about the MIC90 (H. influenzae) of the same compound?
Its MIC90 is “(MIC90 of 0.06 μg/mL”.

What about the MIC90 (S. pneumoniae) of the same compound?
Its MIC90 is “(MIC90 of 0.125 μg/mL”.
